One experiment has as its target T1, human V2 receptor (Homo sapiens, UniProt P30518).
T1 construct: expressed in transfected cells; host or cells: CHO K1 (ATCC) expressing firefly luciferase under a CRE-responsive promoter
Description: Cellular in vitro assay for determining vasopressin receptor activity, V2 receptor cell line (CRE-luciferase). Format: cell-based. Conditions: CHO cell line transfected with human V2 receptor; [Arg8]-vasopressin at EC50; compounds of the invention (Table 1A); read-out: IC50 hV2. As for the experimental part:
(§1) The identification of agonists and antagonists of the V1a and V2 vasopressin receptors from humans, rats and dogs as well as the quantification of the activity of the compounds of the invention is carried out using recombinant cell lines. These cell lines originally derive from a hamster's ovary epithelial cell (Chinese Hamster Ovary, CHO K1, ATCC: American Type Culture Collection, Manassas, Va. 20108, USA). The test cell lines constitutively express the human, rat or dog V1a or V2 receptors. In case of the […] V1a receptors, cells are also stably transfected with a modified form of the calcium-sensitive photoproteins aequorin (human and rat V1a) or obelin (dog V1a), which, after reconstitution with the cofactor coelenterazine, emit light when there are increases in free calcium concentrations [Rizzuto R, Simpson A W, Brini M, Pozzan T, Nature 358, 325-327 (1992); Illarionov B A, Bondar V S, Illarionova V A, Vysotski E S, Gene 153 (2), 273-274 (1995)]. The resulting vasopressin receptor cells react to stimulation of the recombinantly expressed V1a receptors by intracellular release of calcium ions, which can be quantified by the resulting photoprotein luminescence. The Gs-coupled V2 receptors are stably transfected into cell lines expressing the gene for firefly luciferase under control of a CRE-responsible promoter. Activation of V2 receptors induces the activation of the CRE-responsive promoter via cAMP increase, thereby inducing the expression of firefly luciferase. The light emitted by photoproteins of V1a cell lines as well as the light emitted by firefly luciferase of V2 cell lines corresponds to the activation or inhibition of the respective vasopressin receptor. The bioluminescence of the cell lines is detected using a suitable luminometer [Milligan G, Marshall F, Rees S, Trends in Pharmacological Sciences 17, 235-237 (1996)].
On the day before the assay, the cells are plated out in culture medium (DMEM/F12, 2% FCS, 2 mM glutamine, 10 mM HEPES) in 384-well microtiter plates and kept in a cell incubator (96% humidity, 5% v/v CO2, 37° C.). […] Upon addition of the cell lysis reagent Triton and the substrate luciferin, luminescence of firefly luciferase is measured in a luminometer.
(§2) Table 1A below lists individual IC50 values for the compounds of the invention (including diastereomeric mixtures as well as separated, enantiopure diastereomers) that were obtained from cell lines transfected with the human V1a or V2 receptor: […]

Another experiment addresses T2, human V1a receptor (Homo sapiens, UniProt P37288).
T2 construct: expressed in transfected cells; host or cells: CHO K1 (ATCC), also stably transfected with modified aequorin
Description: Cellular in vitro assay for determining vasopressin receptor activity, V1a receptor cell line (photoprotein luminescence). To be noted: CHO cell line transfected with human V1a receptor; [Arg8]-vasopressin at EC50; compounds of the invention (Table 1A); read-out: IC50 hV1a. Format: cell-based. As to the method:
as §1
On the day before the assay, the cells are plated out in culture medium (DMEM/F12, 2% FCS, 2 mM glutamine, 10 mM HEPES, 5 μg/ml coelenterazine) in 384-well microtiter plates and kept in a cell incubator (96% humidity, 5% v/v CO2, 37° C.). On the day of the assay, test compounds in various concentrations are placed for 10 minutes in the wells of the microtiter plate before the agonist [Arg^8]-vasopressin at EC50 concentration is added. The resulting light signal is measured immediately in the luminometer.
as §2

For orientation: IC50 means the concentration that inhibits the measured activity by half.

T1 sequence (P30518 whole entry): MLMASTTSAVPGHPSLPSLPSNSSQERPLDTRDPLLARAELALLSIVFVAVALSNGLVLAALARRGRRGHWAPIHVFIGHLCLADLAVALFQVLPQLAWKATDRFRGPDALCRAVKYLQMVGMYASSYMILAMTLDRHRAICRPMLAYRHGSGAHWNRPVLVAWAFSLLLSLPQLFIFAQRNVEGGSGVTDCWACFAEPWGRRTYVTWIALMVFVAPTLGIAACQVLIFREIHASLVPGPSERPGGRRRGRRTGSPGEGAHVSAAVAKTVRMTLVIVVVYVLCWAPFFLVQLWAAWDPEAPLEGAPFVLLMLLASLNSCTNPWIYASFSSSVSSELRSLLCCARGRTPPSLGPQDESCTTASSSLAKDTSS
T2 sequence (P37288 whole entry): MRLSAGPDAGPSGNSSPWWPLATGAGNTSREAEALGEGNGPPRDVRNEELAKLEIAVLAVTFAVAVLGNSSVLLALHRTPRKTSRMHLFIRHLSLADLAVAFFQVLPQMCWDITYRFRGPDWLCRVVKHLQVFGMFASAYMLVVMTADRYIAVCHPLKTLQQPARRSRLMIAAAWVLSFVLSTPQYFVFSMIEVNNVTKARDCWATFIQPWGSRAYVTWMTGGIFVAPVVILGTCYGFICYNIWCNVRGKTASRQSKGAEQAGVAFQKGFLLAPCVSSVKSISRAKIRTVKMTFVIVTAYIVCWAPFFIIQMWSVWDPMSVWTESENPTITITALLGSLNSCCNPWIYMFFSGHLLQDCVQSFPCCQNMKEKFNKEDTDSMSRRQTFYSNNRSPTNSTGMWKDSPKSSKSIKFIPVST

In the case of `CC(O)c1nc(Cn2nc(-c3ccc(Cl)cc3)n(C[C@H](O)C(F)(F)F)c2=O)nn1-c1cccc(OC(F)F)c1` (mixture of isomers) [Example 55, 5-(4-Chlorophenyl)-2-({1-[3-(difluoromethoxy)phenyl]-5-[(1RS)-1-hydroxyethyl]-1H-1,2,4-triazol-3-yl}methyl)-4-[(2S)-3,3,3-trifluoro-2-hydroxypropyl]-2,4-dihydro-3H-1,2,4-triazol-3-one], the IC50 on human V2 receptor was determined as 4.2 nM; at human V1a receptor, 14.8 nM.
As for `CC(O)c1nc(Cn2nc(-c3ccc(Cl)cc3)n(C[C@H](O)C(F)(F)F)c2=O)nn1-c1cc(F)ccc1Cl` (mixture of isomers) [Example 58, 2-({1-(2-Chloro-5-fluorophenyl)-5-[(1RS)-1-hydroxyethyl]-1H-1,2,4-triazol-3-yl}methyl)-5-(4-chlorophenyl)-4-[(2S)-3,3,3-trifluoro-2-hydroxypropyl]-2,4-dihydro-3H-1,2,4-triazol-3-one], the figures for the IC50 at human V2 receptor and on human V1a receptor were 1.5 nM and 0.2 nM, respectively.
Consider `CC(O)c1nc(Cn2nc(-c3ccc(Cl)cc3)n(C[C@H](O)C(F)(F)F)c2=O)nn1-c1cccc(Cl)c1Cl` (mixture of isomers) [Example 61, 5-(4-Chlorophenyl)-2-({1-(2,3-dichlorophenyl)-5-[(1RS)-1-hydroxyethyl]-1H-1,2,4-triazol-3-yl}-methyl)-4-[(2S)-3,3,3-trifluoro-2-hydroxypropyl]-2,4-dihydro-3H-1,2,4-triazol-3-one], for which the half-inhibitory concentration (IC50) was found to be 0.2 nM at human V2 receptor and 3.2 nM at human V1a receptor.
In the same order, the values of `CC(O)c1nc(Cn2nc(-c3ccc(Cl)cc3)n(C[C@H](O)C(F)(F)F)c2=O)nn1-c1cccc(F)c1F` (mixture of isomers) [Example 64, 5-(4-Chlorophenyl)-2-({1-(2,3-difluorophenyl)-5-[(1RS)-1-hydroxyethyl]-1H-1,2,4-triazol-3-yl}-methyl)-4-[(2S)-3,3,3-trifluoro-2-hydroxypropyl]-2,4-dihydro-3H-1,2,4-triazol-3-one] are 5.1 nM and 8.1 nM.
In the same order, the values of `CC(O)c1nc(Cn2nc(-c3ccc(Cl)cc3)n(C[C@H](O)C(F)(F)F)c2=O)nn1-c1cccc(F)c1` (mixture of isomers) [Example 75, 5-(4-Chlorophenyl)-2-({1-(3-fluorophenyl)-5-[(1RS)-1-hydroxyethyl]-1H-1,2,4-triazol-3-yl}-methyl)-4-[(2S)-3,3,3-trifluoro-2-hydroxypropyl]-2,4-dihydro-3H-1,2,4-triazol-3-one] are 6.6 nM and 2.9 nM.
In the same order, the values of `CC(O)c1nc(Cn2nc(-c3ccc(Cl)cc3)n(C[C@H](O)C(F)(F)F)c2=O)nn1-c1cccc(Cl)c1` (mixture of isomers) [Example 78, 5-(4-Chlorophenyl)-2-({1-(3-chlorophenyl)-5-[(1RS)-1-hydroxyethyl]-1H-1,2,4-triazol-3-yl}-methyl)-4-[(2S)-3,3,3-trifluoro-2-hydroxypropyl]-2,4-dihydro-3H-1,2,4-triazol-3-one] are 3.1 nM and 10.4 nM.
Regarding `COc1ccccc1-n1nc(Cn2nc(-c3ccc(Cl)cc3)n(C[C@H](O)C(F)(F)F)c2=O)nc1C(C)O` (single isomer, unassigned) [Example 11], the IC50 was found to be 0.3 nM on human V2 receptor and 0.4 nM on human V1a receptor.
In the same order, the values of `COc1ccccc1-n1nc(Cn2nc(-c3ccc(Cl)cc3)n(C[C@H](O)C(F)(F)F)c2=O)nc1C(C)O` (single isomer, unassigned) [Example 12] are 1.1 nM and 1.3 nM.
In the same order, the values of `CC(O)c1nc(Cn2nc(-c3ccc(Cl)cc3)n(C[C@H](O)C(F)(F)F)c2=O)nn1-c1ccccc1` (single isomer, unassigned) [Example 18] are 8.6 nM and 14.1 nM.
In the same order, the values of `CC(O)c1nc(Cn2nc(-c3ccc(Cl)cc3)n(C[C@H](O)C(F)(F)F)c2=O)nn1-c1cccc(C(F)F)c1` (single isomer, unassigned) [Example 20] are 0.8 nM and 3.8 nM.
In the case of `CC(O)c1nc(Cn2nc(-c3ccc(Cl)cc3)n(C[C@H](O)C(F)(F)F)c2=O)nn1-c1cccc(C(F)F)c1` (single isomer, unassigned) [Example 21], the IC50 was 2.2 nM at human V2 receptor and 57.8 nM at human V1a receptor.
In the same order, the values of `CC(O)c1nc(Cn2nc(-c3ccc(Cl)cc3)n(C[C@H](O)C(F)(F)F)c2=O)nn1-c1cccc(C(F)(F)F)c1` (single isomer, unassigned) [Example 23] are 0.9 nM and 12.2 nM.
In the same order, the values of `CC(O)c1nc(Cn2nc(-c3ccc(Cl)cc3)n(C[C@H](O)C(F)(F)F)c2=O)nn1-c1cccc(C(F)(F)F)c1` (single isomer, unassigned) [Example 24] are 2 nM and 120 nM.
In the same order, the values of `CC(O)c1nc(Cn2nc(-c3ccc(Cl)cc3)n(C[C@H](O)C(F)(F)F)c2=O)nn1-c1cc(F)cc(F)c1` (single isomer, unassigned) [Example 26] are 3 nM and 3.1 nM.
As for `CC(O)c1nc(Cn2nc(-c3ccc(Cl)cc3)n(C[C@H](O)C(F)(F)F)c2=O)nn1-c1cc(F)cc(F)c1` (single isomer, unassigned) [Example 27], the values for the IC50 at human V2 receptor and on human V1a receptor were 7.7 nM and 43.7 nM, respectively.
In the same order, the values of `Cc1cccc(-n2nc(Cn3nc(-c4ccc(Cl)cc4)n(C[C@H](O)C(F)(F)F)c3=O)nc2C(C)O)c1` (single isomer, unassigned) [Example 30] are 0.4 nM and 71.6 nM.
Consider `CCc1ccccc1-n1nc(Cn2nc(-c3ccc(Cl)cc3)n(C[C@H](O)C(F)(F)F)c2=O)nc1C(C)O` (single isomer, unassigned) [Example 32], for which the IC50 at human V2 receptor was 1 nM; at human V1a receptor, 0.9 nM.
In the same order, the values of `CCc1ccccc1-n1nc(Cn2nc(-c3ccc(Cl)cc3)n(C[C@H](O)C(F)(F)F)c2=O)nc1C(C)O` (single isomer, unassigned) [Example 33] are 2.3 nM and 1.6 nM.
In the same order, the values of `CC(O)c1nc(Cn2nc(-c3ccc(Cl)cc3)n(C[C@H](O)C(F)(F)F)c2=O)nn1-c1ccc(F)cc1Cl` (single isomer, unassigned) [Example 35] are 1.6 nM and 0.5 nM.
In the same order, the values of `CC(O)c1nc(Cn2nc(-c3ccc(Cl)cc3)n(C[C@H](O)C(F)(F)F)c2=O)nn1-c1ccc(F)cc1Cl` (single isomer, unassigned) [Example 36] are 2.8 nM and 0.8 nM.
Regarding `COc1ccc(F)cc1-n1nc(Cn2nc(-c3ccc(Cl)cc3)n(C[C@H](O)C(F)(F)F)c2=O)nc1C(C)O` (single isomer, unassigned) [Example 38], the results for the IC50 at human V2 receptor and at human V1a receptor were 0.9 nM and 0.6 nM, respectively.
As for `COc1ccc(F)cc1-n1nc(Cn2nc(-c3ccc(Cl)cc3)n(C[C@H](O)C(F)(F)F)c2=O)nc1C(C)O` (single isomer, unassigned) [Example 39], the results for the 50% inhibitory concentration (IC50) on human V2 receptor and at human V1a receptor were 3.5 nM and 1.5 nM, respectively.
In the same order, the values of `CC(O)c1nc(Cn2nc(-c3ccc(Cl)cc3)n(C[C@H](O)C(F)(F)F)c2=O)nn1-c1ccccc1F` (single isomer, unassigned) [Example 41] are 7.9 nM and 1.8 nM.
In the case of `CC(O)c1nc(Cn2nc(-c3ccc(Cl)cc3)n(C[C@H](O)C(F)(F)F)c2=O)nn1-c1ccccc1F` (single isomer, unassigned) [Example 42], the half-inhibitory concentration (IC50) at human V2 receptor came to 12.7 nM; on human V1a receptor, 5.1 nM.
In the same order, the values of `CC(O)c1nc(Cn2nc(-c3ccc(Cl)cc3)n(C[C@H](O)C(F)(F)F)c2=O)nn1-c1ccc(F)c(Cl)c1` (single isomer, unassigned) [Example 44] are 1.2 nM and 6.1 nM.
With `CC(O)c1nc(Cn2nc(-c3ccc(Cl)cc3)n(C[C@H](O)C(F)(F)F)c2=O)nn1-c1ccc(F)c(Cl)c1` (single isomer, unassigned) [Example 45], the IC50 on human V2 receptor came to 3.3 nM; on human V1a receptor it was 92.1 nM.
